We go through 18 compounds from ChEMBL document CHEMBL5137099, “Discovery of Novel cccDNA Reducers toward the Cure of Hepatitis B Virus Infection” (J Med Chem, 2022).

≈ marks a conversion by molar mass, not a printed value. Calls of active or inactive are those of the source. No cut-off for these calls is given here.

For orientation: IC50 means the concentration that inhibits the measured activity by half. The term CC50 denotes the concentration at which the toxic effect on the cells reaches its halfway point. As a reminder, the solubility is the concentration that dissolves in the medium under given conditions. A lower solubility goes with little dissolved substance. Broadly, the logD is the decadic logarithm of the distribution of all forms, ionised or not, between an organic phase and buffer at a given pH. High values mean a more lipophilic compound, low ones a more hydrophilic compound.

Series [1] has as its system Hepatitis B virus. As to the kind of experiment: Antiviral activity against HBV infected in human HepDES19 cells assessed as reduction in HBV cccDNA production by measuring inhibition of HBeAg secretion incubated for 5 days by ELISA. It is filed as functional, organism-based. As to conditions: HepDES19, 120 h. Background: An ELISA detects its analyte on a solid surface through an enzyme-linked reagent.

A short description of series [2]: Cytotoxicity against human HepDES19 cells assessed as reduction in cell viability measured after 5 days by CCK-8 assay. The class given is toxicity, cell-based. The settings on record: time 5 day.
A short description of series [3]: Aqueous solubility of the compound. The class given is physicochemical. As to conditions: buffer.
Series [4] can be described thus: Therapeutic index, ratio of CC50 for cytotoxicity against human HepDES19 cells assessed as reduction in cell viability measured after 5 days by CCK-8 assay to IC50 for antiviral activity against HBV infected in human HepDES19 cells assessed as reduction in HBV cccDNA production by measuring inhibition of HBeAg secretion incubated for 5 days by ELISA. It is filed as toxicity, cell-based. The settings on record: time 5 day, read-out: Ratio CC50/IC50.

The subject of series [5] is Hepatitis B virus. As to the kind of experiment: Antiviral activity against HBV infected in human HepG2 cells assessed as reduction in HBeAg secretion incubated for 5 days by counter screen assay. The class given is functional, organism-based. The settings on record: HepG2, 120 h.
A short description of series [6]: Permeability of the compound by PAMPA analysis. The class given is ADME. The settings on record: read-out: permeability.
The test system of series [7] is Hepatitis B virus. As to the kind of experiment: Antiviral activity against HBV infected in human primary hepatocyte cells assessed as reduction in HBV cccDNA production by measuring inhibition of HBsAg secretion measured after 48 hrs by ELISA. The class given is functional, organism-based.
Series [8] in a line: Octanol-aqueous buffer distribution coefficient, log D of the compound at pH 7.4 by CAMDIS assay. The class given is physicochemical.
Series [9] in a line: Metabolic stability in mouse hepatocytes assessed as intrinsic clearance. The class given is ADME, cell-based, Hepatocyte. The settings on record: read-out: CLH.
The subject of series [10] is Hepatitis B virus. As to the kind of experiment: Antiviral activity against HBV infected in human HepDES19 cells assessed as reduction in HBV cccDNA production by measuring inhibition of HBeAg secretion at 0.3 to 10 uM by southern blot analysis. The settings on record: dose 0.3-10 µM. It is filed as functional, organism-based.

For the compound `COc1ccccc1C(=O)Nc1ccc2c(=O)c3cccc(F)c3oc2c1`, the IC50 in series [1] was 84.9 µM; in [5] it was above 50 µM. Besides, in [2], the CC50 at 120 h is above 100 µM. This compound came in with a solubility in series [3] below 1 µg/mL. Besides, the selectivity ratio at 120 h in [4] is above 1.

On to `O=C(O)[C@H]1CCN(c2ccc3c(=O)c4cccc(Cl)c4oc3c2)C1`, for which the IC50 is 1.92 µM in series [1], 1.58 µM in [7] and above 50 µM in series [5]. This compound yielded a solubility in series [3] above 430 µg/mL. Also, the Papp in [6] is 3.02 ×10⁻⁶ cm/s. Also, in [8], the log distribution coefficient (logD) stood at 1.09.

In the case of `O=C(O)C1CCN(c2ccc3c(=O)c4c(Cl)ccc(Cl)c4oc3c2)C1` (stereo not drawn), the figures for the IC50 in series [1], in series [7] and in series [5] were 2.36 µM, 1.16 µM and above 50 µM, respectively. This compound also registered a solubility in [3] of 32 µg/mL (≈ 84.6 µM). Also, the CLint scaled in [9] stood at 34.8 mL/min/kg. In addition, in series [6], the Papp was found to be 1.72 ×10⁻⁶ cm/s. In addition, the pH-dependent lipophilicity (logD) in series [8] is 1.44.

For `Cc1cc2c(=O)c3cccc(Cl)c3oc2cc1N1CCC(C(=O)O)C1` (stereo not drawn), the concentration for half-maximal inhibition (IC50) in [1] was 0.75 µM; in series [7] it was 3 µM; in series [5], above 50 µM. Also, in series [3], the solubility is below 465 µg/mL. The Papp in series [6] was found to be 1.34 ×10⁻⁶ cm/s. The log distribution coefficient (logD) in series [8] is 1.5.

In the case of `O=C(O)C1CCN(c2ccc3c(=O)c4c(F)ccc(Cl)c4oc3c2)C1` (stereo not drawn), the IC50 in series [1] is 1.46 µM; in series [7] it was 8.48 µM; in series [5], above 50 µM. This compound also yielded a solubility in series [3] of 14 µg/mL (≈ 38.7 µM). Moreover, in [9], the CLint scaled was 38.4 mL/min/kg. Moreover, the Papp in series [6] was found to be 1.83 ×10⁻⁶ cm/s. Further, the logD in series [8] is below -0.5.

Take `O=C(O)C1CCN(c2cc3oc4c(Cl)cccc4c(=O)c3cc2F)C1` (stereo not drawn): the 50% inhibitory concentration (IC50) in [1] is 1.17 µM; in [7], 7.74 µM; in [5], above 50 µM. In addition, the pH-dependent lipophilicity (logD) in [8] stood at 1.39.

In the case of `N#Cc1ccc(Cl)c2oc3cc(N4CCC(C(=O)O)C4)ccc3c(=O)c12` (stereo not drawn), the IC50 was 1.1 µM in series [1], 12.4 µM in series [7] and above 50 µM in series [5]. In addition, in series [3], the solubility is above 443 µg/mL. Moreover, in series [6], the Papp was 0.8 ×10⁻⁶ cm/s.

With `O=C(O)C1CCN(c2ccc3c(=O)c4c(Cl)ccc(Cl)c4oc3c2)C1` (single isomer, unassigned), the IC50 was 0.65 µM in series [1], 2.61 µM in series [7] and above 50 µM in [5]. In addition, in series [3], the concentration in solution (solubility) was 29 µg/mL (≈ 76.7 µM). For the same compound, in series [9], the CLint scaled was found to be 20.3 mL/min/kg. In addition, in series [6], the Papp worked out at 1.19 ×10⁻⁶ cm/s. The logD in [8] was 1.42.

Turning to `O=C(Nc1ccc2c(=O)c3cccc(F)c3oc2c1)c1ccncc1F`, the results for the IC50 in series [1] and in series [5] were 2.43 µM and above 50 µM, respectively. The CC50 at 120 h in series [2] is above 100 µM. In addition, the solubility in series [3] was below 1 µg/mL. Besides, the selectivity ratio at 120 h in [4] is above 20.6.

On to `O=C(O)C1CCN(c2ccc3c(=O)c4c(C(F)(F)F)ccc(Cl)c4oc3c2)C1` (stereo not drawn), for which the figures for the IC50 in series [1], in series [7] and in [5] were 0.25 µM, 1.21 µM and above 50 µM, respectively. Also, in series [3], the solubility is 100 µg/mL (≈ 243 µM). In series [9], the CLint scaled worked out at 11.9 mL/min/kg. Besides, the Papp in series [6] was determined as 1.18 ×10⁻⁶ cm/s. In series [8], this compound had a logD of 1.42.

For `O=C(Nc1ccc2c(=O)c3cccc(Cl)c3oc2c1)c1ccccc1[N+](=O)[O-]`, the figures for the half-inhibitory concentration (IC50) in [1] and in [5] were 10.9 µM and above 50 µM, respectively. Besides, the CC50 at 120 h in [2] was above 100 µM. Moreover, the solubility in series [3] is below 1 µg/mL. Also, the selectivity ratio at 120 h in [4] was above 9.

For `O=C(Nc1ccc2c(=O)c3cccc(F)c3oc2c1)c1ccccc1O`, the IC50 in series [1] is 6.79 µM; in [5] it was above 50 µM. Also, the CC50 at 120 h in series [2] came to 35.1 µM. In [3], this compound displayed a solubility below 1 µg/mL. The selectivity ratio at 120 h in [4] came out at 5.

As for `O=C(Nc1ccc2c(=O)c3cccc(F)c3oc2c1)c1ccncc1`, the figures for the concentration for half-maximal inhibition (IC50) in [1] and in series [5] were 1.14 µM and above 50 µM, respectively. In series [2], the cytotoxic concentration (CC50) at 120 h is above 100 µM. The same compound displayed a solubility in series [3] below 1 µg/mL. In series [4], the selectivity ratio at 120 h was above 134.

Turning to `O=C(Nc1ccc2c(=O)c3ccccc3oc2c1)c1ccccc1F`, the figures for the IC50 in [1] and in series [5] were 4.03 µM and above 50 µM, respectively. Moreover, in series [2], the half-maximal cytotoxic concentration (CC50) at 120 h is above 50 µM. This compound gave a solubility in [3] below 1 µg/mL. Moreover, the selectivity ratio at 120 h in [4] is above 13.

On to `CN(C(=O)c1ccncc1)c1ccc2c(=O)c3cccc(F)c3oc2c1`, for which the IC50 in series [1] was 18.3 µM; in series [5], above 50 µM. In addition, the 50% cytotoxic concentration (CC50) at 120 h in series [2] is above 100 µM. In [3], this compound displayed a solubility below 1 µg/mL. Also, the selectivity ratio at 120 h in [4] was above 5.

For `O=C(Nc1ccc2c(=O)c3cccc(F)c3oc2c1)c1ccccc1`, the IC50 in series [1] is 1.89 µM; in series [5], above 50 µM. In addition, the cytotoxic concentration (CC50) at 120 h in [2] was above 100 µM. The same compound showed a solubility in [3] below 1 µg/mL. Also, the Papp in series [6] was determined as 0.22 ×10⁻⁶ cm/s. Further, in series [4], the selectivity ratio at 120 h was above 53.

Turning to `O=C(Nc1ccc2c(=O)c3cccc(F)c3oc2c1)c1ccccc1Cl`, the half-maximal inhibitory concentration (IC50) is 2.62 µM in series [1] and above 50 µM in series [5]. Also, the half-maximal cytotoxic concentration (CC50) at 120 h in series [2] is above 100 µM. The same compound displayed a solubility in series [3] below 1 µg/mL. Besides, the selectivity ratio at 120 h in [4] was above 38.

Consider `O=C(Nc1ccc2c(=O)c3cccc(F)c3oc2c1)c1ccccc1F`, for which the outcome in series [10] was Active. Also, the half-inhibitory concentration (IC50) is 0.71 µM in series [1], 5.45 µM in series [7] and above 50 µM in [5]. The CC50 at 120 h in [2] is above 100 µM. This compound also yielded a solubility in series [3] below 1 µg/mL. Further, in series [9], the CLint scaled is 86.7 mL/min/kg. In addition, the selectivity ratio at 120 h in series [4] was above 141.
